# Biological target: T1, estrogen receptor (Homo sapiens, UniProt P03372)
# T1 construct: endogenous in cells; host or cells: ECC-1 cells
# T1 sequence (P03372 1-595): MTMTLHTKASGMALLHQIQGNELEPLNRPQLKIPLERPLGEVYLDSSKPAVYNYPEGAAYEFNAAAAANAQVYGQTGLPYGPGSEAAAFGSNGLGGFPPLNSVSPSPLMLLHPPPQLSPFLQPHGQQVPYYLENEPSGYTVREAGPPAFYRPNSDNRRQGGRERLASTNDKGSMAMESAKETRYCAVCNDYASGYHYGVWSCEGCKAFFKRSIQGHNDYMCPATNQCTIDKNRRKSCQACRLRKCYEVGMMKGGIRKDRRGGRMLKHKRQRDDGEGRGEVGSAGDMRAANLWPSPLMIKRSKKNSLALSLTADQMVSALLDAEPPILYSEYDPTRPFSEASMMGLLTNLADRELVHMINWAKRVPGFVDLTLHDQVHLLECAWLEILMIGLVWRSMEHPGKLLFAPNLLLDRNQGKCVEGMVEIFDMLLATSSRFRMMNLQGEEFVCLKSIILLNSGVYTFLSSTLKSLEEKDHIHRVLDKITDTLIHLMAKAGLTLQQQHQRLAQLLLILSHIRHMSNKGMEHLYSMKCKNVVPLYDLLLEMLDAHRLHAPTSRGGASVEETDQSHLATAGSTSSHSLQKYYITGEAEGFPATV
# Test: Alkaline phosphatase (AP) assay in ECC-1 cells, agonist mode (no E2) and antagonist mode (500 pM E2)
# Format: cell-based
# Conditions: 3 days, AP activity normalized to 500 pM E2 alone, agonist mode without E2, antagonist mode with 500 pM E2
# Outline: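 ECC-1 cells in hormone-depleted medium treated 3 days with compound alone (agonist mode) or with 500 pM E2 (antagonist mode). Alkaline phosphatase read by p-nitrophenyl phosphate hydrolysis, 40 min at 42° C, A405. Activity normalized to 500 pM E2 alone.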
row,SMILES,"Activity (estrogen receptor modulation, agonism and antagonism)"
1,"C[C@@H]1Cc2c([nH]c3ccccc23)[C@@H](c2ccc(SC3CN(CCCF)C3)s2)N1CC(C)(C)F [Example I-61, 3-({5-[(1S,3R)-2-(2-fluoro-2-methylpropyl)-3-methyl-1H,2H,3H,4H,9H-pyrido[3,4-b]indol-1-yl]thiophen-2-yl}sulfanyl)-1-(3-fluoropropyl)azetidine]",++ (estrogen receptor antagonism having (i) between 10% and 80% increase in the E2-normalized signal in the AP assay (agonist mode) and (ii) between 10% and 80% reduction in the E2-normalized signal in the AP assay (antagonist mode))
2,"Cc1cc([C@@H]2c3[nH]c4ccccc4c3C[C@@H](C)N2CC(C)(C)F)sc1CC1CN(CCCF)C1 [Example I-9, (1S,3R)-2-(2-fluoro-2-methylpropyl)-1-(5-((1-(3-fluoropropyl)azetidin-3-yl)methyl)-4-methylthiophen-2-yl)-3-methyl-2,3,4,9-tetrahydro-1H-pyrido[3,4-b]indole]",++ (estrogen receptor antagonism having (i) between 10% and 80% increase in the E2-normalized signal in the AP assay (agonist mode) and (ii) between 10% and 80% reduction in the E2-normalized signal in the AP assay (antagonist mode))
3,"C[C@@H]1Cc2c([nH]c3ccccc23)[C@@H](c2ccc(CC3CN(CC4COC4)C3)s2)N1CC(C)(C)F [Example I-24, (1S,3R)-2-(2-fluoro-2-methylpropyl)-3-methyl-1-(5-((1-(oxetan-3-ylmethyl)azetidin-3-yl)methyl)thiophen-2-yl)-2,3,4,9-tetrahydro-1H-pyrido[3,4-b]indole]",++ (estrogen receptor antagonism having (i) between 10% and 80% increase in the E2-normalized signal in the AP assay (agonist mode) and (ii) between 10% and 80% reduction in the E2-normalized signal in the AP assay (antagonist mode))
4,"C[C@@H]1Cc2c([nH]c3ccccc23)[C@@H](c2cnc(C[C@H]3CCN(CCCF)C3)s2)N1CC(F)(F)CO [Example I-36, 2,2-difluoro-3-[(1S,3R)-1-[2-[[(3R)-1-(3-fluoropropyl)pyrrolidin-3-yl]methyl]thiazol-5-yl]-3-methyl-1,3,4,9-tetrahydropyrido[3,4-b]indol-2-yl]propan-1-ol]",+ (estrogen receptor agonism having (i) at least 80% increase in the E2-normalized signal in the AP assay (agonist mode) and (ii) no more than 80% reduction in the E2-normalized signal in the AP assay (antagonist mode))
5,"CCCN1CC(Cc2cnc([C@@H]3c4[nH]c5ccccc5c4C[C@@H](C)N3CC(C)(C)F)s2)C1 [Example I-3, 2-[(1S,3R)-2-(2-fluoro-2-methylpropyl)-3-methyl-1H,2H,3H,4H,9H-pyrido[3,4-b]indol-1-yl]-5-[(1-propylazetidin-3-yl)methyl]-1,3-thiazole]",+ (estrogen receptor agonism having (i) at least 80% increase in the E2-normalized signal in the AP assay (agonist mode) and (ii) no more than 80% reduction in the E2-normalized signal in the AP assay (antagonist mode))
6,"C[C@@H]1Cc2c([nH]c3ccccc23)[C@@H](c2ccc(CC3CN(CCC(F)(F)F)C3)s2)N1CC(C)(C)F [Example I-15, 3-({5-[(1S,3R)-2-(2-fluoro-2-methylpropyl)-3-methyl-1H,2H,3H,4H,9H-pyrido[3,4-b]indol-1-yl]thiophen-2-yl}methyl)-1-(3,3,3-trifluoropropyl)azetidine]",++ (estrogen receptor antagonism having (i) between 10% and 80% increase in the E2-normalized signal in the AP assay (agonist mode) and (ii) between 10% and 80% reduction in the E2-normalized signal in the AP assay (antagonist mode))
7,"CCCN1CC(Cc2ncc([C@@H]3c4[nH]c5ccccc5c4C[C@@H](C)N3CC(C)(C)F)s2)C1 [Example I-7, 5-((1S,3R)-2-(2-fluoro-2-methylpropyl)-3-methyl-2,3,4,9-tetrahydro-1H-pyrido[3,4-b]indol-1-yl)-2-((1-propylazetidin-3-yl)methyl)thiazole]",++ (estrogen receptor antagonism having (i) between 10% and 80% increase in the E2-normalized signal in the AP assay (agonist mode) and (ii) between 10% and 80% reduction in the E2-normalized signal in the AP assay (antagonist mode))
8,"C[C@@H]1Cc2c([nH]c3ccccc23)[C@@H](c2cnc(C[C@H]3CCN(CCCF)C3)s2)N1CC(F)(F)F [Example I-33, 2-(((R)-1-(3-fluoropropyl)pyrrolidin-3-yl)methyl)-5-((1S,3R)-3-methyl-2-(2,2,2-trifluoroethyl)-2,3,4,9-tetrahydro-1H-pyrido[3,4-b]indol-1-yl)thiazole]",++ (estrogen receptor antagonism having (i) between 10% and 80% increase in the E2-normalized signal in the AP assay (agonist mode) and (ii) between 10% and 80% reduction in the E2-normalized signal in the AP assay (antagonist mode))
9,"C[C@@H]1Cc2c([nH]c3ccccc23)[C@@H](c2cnc(N[C@@H]3CN(CCCF)C[C@@H]3F)s2)N1CC(F)(F)CO [Example I-72, 2,2-difluoro-3-[(1S,3R)-1-[2-[[(3R,4S)-4-fluoro-1-(3-fluoropropyl)pyrrolidin-3-yl]amino]thiazol-5-yl]-3-methyl-1,3,4,9-tetrahydropyrido[3,4-b]indol-2-yl]propan-1-ol]",++ (estrogen receptor antagonism having (i) between 10% and 80% increase in the E2-normalized signal in the AP assay (agonist mode) and (ii) between 10% and 80% reduction in the E2-normalized signal in the AP assay (antagonist mode))
10,"CCCN1CC(Cc2cnc([C@@H]3c4[nH]c5ccccc5c4C[C@@H](C)N3CC(F)(F)CO)s2)C1 [Example I-50, 2,2-difluoro-3-[(1S,3R)-3-methyl-1-[5-[(1-propylazetidin-3-yl)methyl]thiazol-2-yl]-1,3,4,9-tetrahydropyrido[3,4-b]indol-2-yl]propan-1-ol]",++ (estrogen receptor antagonism having (i) between 10% and 80% increase in the E2-normalized signal in the AP assay (agonist mode) and (ii) between 10% and 80% reduction in the E2-normalized signal in the AP assay (antagonist mode))
11,"C[C@@H]1Cc2c([nH]c3ccccc23)[C@@H](c2ccc(CC3CN(CCCF)C3)s2)N1CC(F)(F)CO [Example I-16, 2,2-difluoro-3-[(1S,3R)-1-(5-{[1-(3-fluoropropyl)azetidin-3-yl]methyl}thiophen-2-yl)-3-methyl-1H,2H,3H,4H,9H-pyrido[3,4-b]indol-2-yl]propan-1-ol]",+++ (estrogen receptor antagonism (i) with pIC50 greater than 7.5 and at least a 10% reduction in the E2-normalized signal in the AP assay (antagonist mode); and no more than 10% increase in E2-normalized signal in the AP assay (agonist mode))
12,"C[C@@H]1Cc2c([nH]c3ccccc23)[C@@H](c2ccc(CC3CN(CCCF)C3)s2)N1CC(C)(F)F [Example I-22, 3-({5-[(1S,3R)-2-(2,2-difluoropropyl)-3-methyl-1H,2H,3H,4H,9H-pyrido[3,4-b]indol-1-yl]thiophen-2-yl}methyl)-1-(3-fluoropropyl)azetidine]",++ (estrogen receptor antagonism having (i) between 10% and 80% increase in the E2-normalized signal in the AP assay (agonist mode) and (ii) between 10% and 80% reduction in the E2-normalized signal in the AP assay (antagonist mode))
13,"C[C@@H]1Cc2c([nH]c3ccccc23)[C@@H](c2cnc(N[C@@H]3CCCN(CCCF)C3)s2)N1CC(F)(F)CO [Example I-67, 2,2-difluoro-3-((1S,3R)-1-(2-(((R)-1-(3-fluoropropyl)piperidin-3-yl)amino)thiazol-5-yl)-3-methyl-1,3,4,9-tetrahydro-2H-pyrido[3,4-b]indol-2-yl)propan-1-ol]",+ (estrogen receptor agonism having (i) at least 80% increase in the E2-normalized signal in the AP assay (agonist mode) and (ii) no more than 80% reduction in the E2-normalized signal in the AP assay (antagonist mode))
14,C[C@@H]1Cc2c([nH]c3ccccc23)[C@@H](c2cnc(C[C@@H]3CCN(CCCF)C3)s2)N1CC(F)(F)CO [Example I-42],++ (estrogen receptor antagonism having (i) between 10% and 80% increase in the E2-normalized signal in the AP assay (agonist mode) and (ii) between 10% and 80% reduction in the E2-normalized signal in the AP assay (antagonist mode))
15,"C[C@@H]1Cc2c([nH]c3ccccc23)[C@@H](c2ccc(CCCN3CC(CF)C3)s2)N1CC(C)(C)F [Example I-21, 1-(3-{5-[(1S,3R)-2-(2-fluoro-2-methylpropyl)-3-methyl-1H,2H,3H,4H,9H-pyrido[3,4-b]indol-1-yl]thiophen-2-yl}propyl)-3-(fluoromethyl)azetidine]",+++ (estrogen receptor antagonism (i) with pIC50 greater than 7.5 and at least a 10% reduction in the E2-normalized signal in the AP assay (antagonist mode); and no more than 10% increase in E2-normalized signal in the AP assay (agonist mode))

# Source: US20260055103A1, “2,3,4,9-TETRAHYDRO-1H-PYRIDO[3,4-B]INDOLE DERIVATIVES AS ESTROGEN RECEPTOR MODULATORS FOR THE TREATMENT OF CANCER” (Olema Pharmaceuticals, Inc., priority 2022, published 2026)
